Source: the supplement of paper PMC10307832

Experiments:
Test in all cases: relative viability (nuclei count vs DMSO), 5 days (fraction); higher = more cells survive
YM155 + Decitabine = compound: COCC[n+]1c2c(n(Cc3cnccn3)c1C)C(=O)c1ccccc1C2=O [YM155] + Nc1ncn([C@H]2C[C@H](O)[C@@H](CO)O2)c(=O)n1 [Decitabine] (partner 2 µM)
Procedure, shortened: (§1)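 Values are medians from duplicate plates. Each reflects relative viability, defined as the nuclei count of treated wells over that of vehicle wells. Lung cancer cell lines in 1536-well plates were pin-tool dosed one day after seeding with one drug alone or with a fixed anchor-drug dose plus five library-drug doses (not always all listed) in √10 steps, then fixed, stained and imaged at 4× after 5 days.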

Quizartinib + Luminespib = compound: CC(C)(C)c1cc(NC(=O)Nc2ccc(-c3cn4c(n3)sc3cc(OCCN5CCOCC5)ccc34)cc2)no1 [Quizartinib] + CCNC(=O)c1noc(-c2cc(C(C)C)c(O)cc2O)c1-c1ccc(CN2CCOCC2)cc1 [Luminespib] (partner 0.01 µM)
Procedure, shortened: as §1

YM155 + Trametinib = compound: COCC[n+]1c2c(n(Cc3cnccn3)c1C)C(=O)c1ccccc1C2=O [YM155] + CC(=O)Nc1cccc(-n2c(=O)n(C3CC3)c(=O)c3c(Nc4ccc(I)cc4F)n(C)c(=O)c(C)c32)c1 [Trametinib] (partner 0.02 µM)
Procedure, shortened: as §1

YM155 + Linsitinib = compound: COCC[n+]1c2c(n(Cc3cnccn3)c1C)C(=O)c1ccccc1C2=O [YM155] + C[C@]1(O)C[C@@H](c2nc(-c3ccc4ccc(-c5ccccc5)nc4c3)c3c(N)nccn32)C1 [Linsitinib] (partner 1 µM)
Procedure, shortened: as §1

Cell Line | relative viability (YM155 + Decitabine; first compound 0.006325 µM) | relative viability (YM155 + Decitabine; first compound 0.02 µM) | relative viability (YM155 + Decitabine; first compound 0.06325 µM) | relative viability (Quizartinib + Luminespib; first compound 0.001 µM) | relative viability (Quizartinib + Luminespib; first compound 0.003162 µM) | relative viability (Quizartinib + Luminespib; first compound 0.01 µM) | relative viability (Quizartinib + Luminespib; first compound 0.1 µM) | relative viability (YM155 + Trametinib; first compound 0.006325 µM) | relative viability (YM155 + Trametinib; first compound 0.02 µM) | relative viability (YM155 + Trametinib; first compound 0.06325 µM) | relative viability (YM155 + Linsitinib; first compound 0.002 µM) | relative viability (YM155 + Linsitinib; first compound 0.006325 µM) | relative viability (YM155 + Linsitinib; first compound 0.02 µM) | relative viability (YM155 + Linsitinib; first compound 0.06325 µM) | relative viability (YM155 + Decitabine; first compound 0.002 µM) | relative viability (Quizartinib + Luminespib; first compound 0.03162 µM) | relative viability (YM155 + Trametinib; first compound 0.002 µM)
NCI-H23 | 0.278 | 0.291 | 0.363 | 0.209 | 0.245 | 0.219 | 0.185 | 0.361 | 0.498 | 0.225 | 0.54 | 0.595 | 0.598 | 0.295 |  |  | 
NCI-H322M | 0.722 | 0.7 | 0.753 | 0.81 | 0.92 | 0.944 | 0.895 | 0.5 | 0.48 | 0.536 | 0.762 | 0.929 | 0.917 | 1.01 | 0.689 | 0.448 | 0.55
NCI-H358 | 0.2 | 0.199 | 0.22 | 0.224 | 0.359 | 0.309 | 0.228 | 0.153 | 0.167 | 0.14 | 0.708 | 0.689 | 0.778 | 0.253 | 0.257 | 0.475 | 0.142
NCI-H441 | 0.243 | 0.248 | 0.189 | 0.352 | 0.369 | 0.339 | 0.362 | 0.393 | 0.461 | 0.268 | 0.461 | 0.486 | 0.557 | 0.353 | 0.277 |  | 0.383
NCI-H460 | 0.503 | 0.477 | 0.475 | 0.0338 | 0.0373 | 0.0292 | 0.0321 | 0.147 | 0.174 | 0.14 | 0.778 | 0.936 | 0.735 | 0.517 | 0.496 | 0.0246 | 0.081
NCI-H520 | 0.531 | 0.531 | 0.397 | 0.232 | 0.201 | 0.207 | 0.255 | 0.599 | 0.75 | 0.741 | 0.895 | 1.13 | 1.04 | 0.957 | 0.469 | 0.333 | 0.735
NCI-H596 | 1 | 1.02 | 1.04 | 0.922 | 0.884 | 1.02 | 0.888 | 0.784 | 0.744 | 0.859 |  | 1.05 | 1.07 | 1.07 | 0.886 | 0.852 | 0.783
NCI-H647 | 0.405 | 0.288 | 0.272 | 0.174 | 0.155 | 0.213 | 0.189 | 0.456 | 0.463 | 0.472 | 1.11 | 1.37 | 0.996 | 0.857 | 0.482 | 0.327 | 0.342
NCI-H650 | 0.3 | 0.282 | 0.293 | 0.7 | 0.762 | 0.91 | 0.718 | 0.875 | 0.967 | 1.04 | 0.721 | 0.857 | 0.966 | 0.784 | 0.329 | 0.68 | 1.05
NCI-H661 | 0.516 | 0.533 | 0.47 | 0.921 | 0.899 | 0.929 | 0.9 | 0.558 | 0.598 | 0.525 | 0.697 | 0.699 | 0.54 | 0.598 | 0.516 | 0.905 | 0.496
NCI-H727 | 1.01 | 0.867 | 0.857 |  | 0.443 | 0.41 | 0.309 | 0.396 | 0.391 | 0.411 | 0.28 | 0.321 | 0.28 | 0.364 | 0.871 | 0.665 | 0.412
NCI-H838 | 0.471 | 0.399 | 0.383 | 0.203 | 0.207 | 0.329 | 0.234 | 0.505 | 0.508 | 0.372 | 0.935 | 0.997 | 1.03 | 0.485 | 0.423 | 0.281 | 0.461
NCI-H1355 | 0.374 | 0.383 | 0.357 | 0.814 | 0.689 | 0.721 | 0.725 | 0.454 | 0.473 | 0.406 | 0.821 | 0.832 | 0.948 | 0.875 | 0.312 | 0.68 | 0.509
NCI-H1395 | 0.689 | 0.736 | 0.776 | 0.68 | 0.52 | 0.841 | 0.69 | 1.02 | 1.08 | 1.2 | 1.11 | 0.889 | 1.09 | 1.14 | 0.715 | 0.71 | 1.04
NCI-H1437 | 0.539 | 0.567 | 0.472 | 1.01 | 1.07 | 1.09 | 0.982 | 0.564 | 0.534 | 0.469 | 0.994 | 1.05 | 0.989 | 0.878 | 0.557 | 0.782 | 0.42
NCI-H1651 | 0.613 | 0.627 | 0.586 | 0.811 | 0.794 | 0.913 | 0.92 | 0.755 | 0.867 | 0.962 | 1.04 | 0.94 | 1 | 0.642 | 0.667 | 0.599 | 0.863
NCI-H1666 | 0.671 | 0.78 | 0.726 | 0.977 | 1.05 | 1.02 | 1.03 | 0.896 | 0.874 | 0.903 | 0.88 |  | 1.01 | 0.578 | 0.749 | 0.789 | 0.865
NCI-H1734 | 0.525 | 0.468 | 0.446 | 0.16 | 0.257 | 0.188 | 0.197 | 0.658 | 0.724 | 0.741 | 0.916 | 0.811 | 0.889 | 0.979 | 0.474 | 0.178 | 0.672
NCI-H1755 | 0.711 | 0.723 | 0.784 | 0.473 | 0.243 | 0.555 | 0.39 | 0.752 | 0.751 | 0.755 | 0.972 | 1.03 | 0.974 | 0.976 | 0.697 | 0.459 | 0.764
